Data set [1] has as its system Human immunodeficiency virus 1. The data set is described as follows: Antiviral activity against HIV1 3B in MT4 cells assessed as virus p24 antigen production administered at 16 hrs post infection by ELISA. In kind it is functional, organism-based. A general note: An ELISA detects its analyte on a solid surface through an enzyme-linked reagent.
Data set [2] deals with Human immunodeficiency virus 1. The data set is described as follows: Antiviral activity against HIV1 3B in MT4 cells assessed as virus p24 antigen production administered at 5 hrs post infection by ELISA. In kind it is functional, organism-based.
Data set [3] has as its target T1, Protein Tat (Human immunodeficiency virus type 1 group M subtype B (isolate HXB2)(HIV-1)) (UniProt P04608).
T1 sequence (whole entry): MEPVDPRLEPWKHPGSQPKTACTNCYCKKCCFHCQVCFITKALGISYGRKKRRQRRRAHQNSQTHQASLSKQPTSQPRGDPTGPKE
The data set is described as follows: Inhibition of HIV1 Tat-mediated LTR promoter transactivation in Tat/GFP plasmid expressed in Jurkat cells assessed as GFP gene expression by FACS analysis. In kind it is cell-based. As to conditions: Human immunodeficiency virus 1. (A flow cytometer gives signals particle by particle.)

The nature of data set [4]: Selectivity index, ratio of CC50 for human CEM cells to EC50 for HIV2 ROD. In kind it is toxicity, cell-based, CCRF-CEM. The note with it: read-out: Ratio CC50/EC50.
Data set [5] is described as follows: Selectivity index, ratio of CC50 for human CEM cells to EC50 for HIV1 3B. In kind it is toxicity, cell-based, CCRF-CEM. The note with it: read-out: Ratio CC50/EC50.
For data set [6], the system named is Human immunodeficiency virus 2. Briefly: Antiviral activity against HIV2 ROD in CEM cells assessed as inhibition of virus-induced syncytium formation after 4 days by microscopy. The note with it: Human immunodeficiency virus 2, ROD, CCRF-CEM, 96 h. In kind it is functional, organism-based.
Data set [7] can be described thus: Selectivity index, ratio of CC50 for human MT4 cells to EC50 for HIV1 3B. In kind it is toxicity, cell-based. As to conditions: read-out: Ratio CC50/EC50.
Data set [8] is described as follows: Selectivity index, ratio of CC50 for human MT4 cells to EC50 for HIV2 ROD. The note with it: read-out: Ratio CC50/EC50. In kind it is toxicity, cell-based.
Data set [9] can be described thus: Cytotoxicity against mock-infected human CEM cells by Coulter counter. In kind it is cell-based. The note with it: mock-infected CEM (CCRF-CEM) cells.
The subject of data set [10] is Human immunodeficiency virus 2. The data set is described as follows: Antiviral activity against HIV2 ROD in MT4 cells assessed as inhibition of virus-induced cytopathogenicity by MTT assay. As to conditions: Human immunodeficiency virus 2, ROD. In kind it is functional, organism-based. Background: Protection from cytopathic effect is a common read-out in antiviral testing.

Data set [11] is described as follows: Cytotoxicity against mock-infected human MT4 cells after 5 days by MTT assay. In kind it is cell-based.
Data set [12] has as its system Human immunodeficiency virus 1. Briefly: Antiviral activity against HIV1 3B in MT4 cells assessed as inhibition of virus-induced cytopathogenicity by MTT assay. In kind it is functional, organism-based. As to conditions: Human immunodeficiency virus 1, 3B.
For data set [13], the system named is Human immunodeficiency virus 1. The data set is described as follows: Antiviral activity against HIV1 3B in CEM cells assessed as inhibition of virus-induced syncytium formation after 4 days by microscopy. In kind it is functional, organism-based. The note with it: Human immunodeficiency virus 1, 3B, CCRF-CEM, 96 h.
The test system of data set [14] is Human immunodeficiency virus 1. The data set is described as follows: Inhibition of HIV1 3B production in chronically infected HUT78 cells assessed as virus p24 antigen production after 44 hrs by ELISA. In kind it is functional, organism-based.
A short description of data set [15]: Cytotoxicity against mock-infected human PBMC cells by trypan blue exclusion assay. In kind it is cell-based.
Data set [16] relates to Human immunodeficiency virus 1. The data set is described as follows: Antiviral activity against HIV1 3B in PBMC assessed as inhibition of p24 production after 7 days by ELISA. In kind it is functional, organism-based. The note with it: Human immunodeficiency virus 1, 3B, 168 h.
Data set [17] in a line: Selectivity index, ratio of CC50 for human PBMC cells to EC50 for HIV1 3B. In kind it is toxicity, cell-based. As to conditions: read-out: Ratio CC50/EC50.
The test system of data set [18] is Human immunodeficiency virus 1. The data set is described as follows: Antiviral activity against HIV1 3B in MT4 cells assessed as virus p24 antigen production administered at 10 hrs post infection by ELISA. In kind it is functional, organism-based.

From ChEMBL document CHEMBL1140044, “Structure-activity relationship study on anti-HIV 6-desfluoroquinolones” (J Med Chem, 2008) come the findings set out here.

Each structure is given as a SMILES string. Converted amounts (≈) assume the structure as drawn. The source made the active and inactive calls. The calls are words filed in the database; no cut-off is given here. Some results are limits rather than exact numbers.

As for `Cc1cn([C@H]2C[C@H](N=[N+]=[N-])[C@@H](CO)O2)c(=O)[nH]c1=O`, the outcome in data set [1] and in data set [2] was Active.
The EC50 is the midpoint of the concentration-response curve. For orientation: CC50 means the concentration giving 50% cytotoxicity. As for `Cn1cc(C(=O)O)c(=O)c2ccc(N3CCN(c4nc5ccccc5o4)CC3)cc21`, the Activity entry in data set [3] was “Dose-dependent effect”. Further, the selectivity ratio in data set [4] was above 7; in data set [5], above 30; in [7] it was above 22; in data set [8], above 11. The EC50 turned out to be 14 µg/mL (≈ 34.6 µM) in [6], 11.9 µg/mL (≈ 29.3 µM) in [10], 5.76 µg/mL (≈ 14.2 µM) in data set [12] and 3.35 µg/mL (≈ 8.28 µM) in [13]. The CC50 in data set [9] is above 100 µg/mL. This compound also had a CC50 at 120 h in data set [11] above 125 µg/mL.
In the case of `Cn1cc(C(=O)O)c(=O)c2ccc(N3CCN(c4cccc(C(F)(F)F)c4)CC3)cc21`, in [14], the result was Active. The CC50 in data set [15] came to 0.69 µg/mL (≈ 1.6 µM); in data set [9], 1.2 µg/mL (≈ 2.78 µM). Moreover, the selectivity ratio in data set [4] is 4; in data set [5] it was 9; in data set [7] it was 38; in [8] it was 21; in data set [17], 2. In addition, the EC50 was 0.28 µg/mL (≈ 0.649 µM) in data set [6]; 0.28 µg/mL (≈ 0.649 µM) in data set [16]; 0.13 µg/mL (≈ 0.301 µM) in [10]; 0.07 µg/mL (≈ 0.162 µM) in data set [12]; 0.13 µg/mL (≈ 0.301 µM) in [13]. This compound had a CC50 at 120 h in data set [11] of 2.61 µg/mL (≈ 6.05 µM).
Take `CC(C)c1nc(CN(C)C(=O)N[C@H](C(=O)N[C@@H](Cc2ccccc2)C[C@H](O)[C@H](Cc2ccccc2)NC(=O)OCc2cncs2)C(C)C)cs1`: the outcome in data set [1] and in data set [2] was Active.
With `Cn1cc(C(=O)O)c(=O)c2ccc(N3CCN(c4nc5ccccc5s4)CC3)cc21`, the result in data set [14] and in data set [18] was Active. The 50% cytotoxic concentration (CC50) in [15] was determined as 0.65 µg/mL (≈ 1.55 µM); in [9], 6.74 µg/mL (≈ 16 µM). In addition, the Activity entry in data set [3] is “Dose-dependent effect”. For the same compound, the selectivity ratio worked out at 104 in [4]; 281 in data set [5]; 14.7 in [7]; 5.5 in data set [8]; 4 in data set [17]. Also, the EC50 turned out to be 0.065 µg/mL (≈ 0.155 µM) in [6]; 0.15 µg/mL (≈ 0.357 µM) in data set [16]; 0.04 µg/mL (≈ 0.0951 µM) in [10]; 0.03 µg/mL (≈ 0.0713 µM) in data set [12]; 0.024 µg/mL (≈ 0.0571 µM) in data set [13]. Moreover, it took 0.44 µg/mL (≈ 1.05 µM) to reach half-maximal cytotoxicity in data set [11] (CC50 at 120 h).
